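Cultured in 96-well plates, cells were exposed to test compound for 48 hours across five concentrations. TGI marks complete inhibition of growth.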
Experiments:
Experiment in all cases: NCI tumour cell line growth inhibition, 48 h
[1] = test system: IGROV1 ovarian
[2] = test system: OVCAR-8 ovarian
[3] = test system: M14 melanoma
[4] = test system: A498 renal
[5] = test system: HS 578T breast
[6] = test system: SK-MEL-28 melanoma
[7] = test system: MDA-MB-231 breast
[8] = test system: MDA-N
[9] = test system: NCI-H460 lung
[10] = test system: RPMI-8226 leukemia
[11] = test system: MALME-3M melanoma
[12] = test system: MOLT-4 leukemia
[13] = test system: SF-295 CNS
[14] = test system: SN12C renal
[15] = test system: SR leukemia
[16] = test system: CAKI-1 renal
[17] = test system: HOP-62 NSCLC
[18] = test system: OVCAR-3 ovarian
[19] = test system: UACC-62 melanoma
[20] = test system: NCI/ADR-RES ovarian
[21] = test system: U251 CNS
[22] = test system: SNB-75 CNS
[23] = test system: PC-3 prostate
[24] = test system: NCI-H226 lung
[25] = test system: SF-539 CNS
[26] = test system: BT-549 breast
[27] = test system: 786-0 renal
[28] = test system: ACHN renal
[29] = test system: MDA-MB-435
[30] = test system: TK-10 renal
[31] = test system: HL-60(TB) leukemia
[32] = test system: SW-620 colon
[33] = test system: EKVX NSCLC
[34] = test system: HT29 colon
[35] = test system: NCI-H23 lung
[36] = test system: HCT-116 colon
[37] = test system: MCF7 breast
[38] = test system: RXF 393 renal
[39] = test system: K-562 leukemia
[40] = test system: SK-MEL-2 melanoma
[41] = test system: HCT-15 colon
[42] = test system: SK-OV-3 ovarian
[43] = test system: SF-268 CNS
[44] = test system: UACC-257 melanoma
[45] = test system: KM12 colon
[46] = test system: OVCAR-5 ovarian
[47] = test system: DU-145 prostate
[48] = test system: CCRF-CEM leukemia
[49] = test system: LOX IMVI melanoma
[50] = test system: COLO 205 colon
[51] = test system: A549 NSCLC
[52] = test system: SNB-19 CNS
[53] = test system: SK-MEL-5 melanoma
[54] = test system: UO-31 renal
[55] = test system: HCC-2998 colon
[56] = test system: OVCAR-4 ovarian
[57] = test system: HOP-92 NSCLC
[58] = test system: NCI-H522 lung

Measured: TGI

O=C(CN1CCN(c2ccccc2)CC1)c1ccc2[nH]c(=O)oc2c1
not listed: [51] | [52] | [53] | [54] | [55] | [56] | [57] | [58]
> 100 µM: all other assays above

O=C1C(=C/C=C2/SC(c3ccccc3)(c3ccccc3)c3ccccc32)C(=O)c2ccccc21
not listed: [15] | [31] | [40] | [48]
> 100 µM: all other assays above

Cc1ccc2nc(-n3c(/C=C/c4ccccc4O)nc4ccccc4c3=O)sc2c1
not listed: [11] | [14] | [15] | [25] | [43]
> 100 µM: all other assays above

Source: PubChem BioAssay (NCI)
